Tests used:
[1] = system: PTZ-induced seizure rat model; experiment: PTZ (pentylenetetrazole)-induced epileptic seizure model: seizure intensity, grade distribution, mortality; assay type: in vivo, rats; details: for seizure-induced mortality: 10 animals; for seizure intensity: 60 mg/head IP on D1 and D14 (G2)
Method: In order to evaluate the seizure-suppressing effect of administration of the microparticles of the present invention in an epilepsy-induced model, administration groups were set up as follows.
G3 and G4 were administered to rats at different doses using the above-described Example 7.
(§1) After the completion of acclimatization, the rats were divided into groups. On day 1 (D1), the test substances G1 to G4 were administered intraperitoneally and subcutaneously, and 30 minutes later, PTZ (pentylenetetrazole, Sigma, USA) dissolved in 0.9% sterile saline was administered intraperitoneally at a dose of 37.5 mg/kg to induce epileptic seizures. In the normal group, only the same amount of saline was administered. Then, PTZ was repeatedly administered at time points D2, D3, D5, D7, D14, D21, and D28 to induce epileptic seizures. The intensity of the seizures was graded and evaluated for 30 minutes immediately after PTZ administration at each time point according to the following criteria: [Table 7]

[2] = Body weight change in the PTZ seizure study; assay type: in vivo, rats; details: 60 mg/head IP (G2); difference not statistically significant
Method: as §1
During the test period, body weight continued to increase in all the groups without decrease.

## C=C(C)[C@@H]1CCC(C)=C[C@H]1c1c(O)cc(CCCCC)cc1O [CBD solution, cannabidiol]
[1]; 60 mg/head IP (G2), until week 3
  seizure-induced mortality: no deaths occurred
[1]; 60 mg/head IP (G2), week 4
  seizure-induced mortality: three animals died
  individuals with grade-5 seizures: more than half of individuals
[1]; 60 mg/head IP (G2), week 2, at the time of additional administration
  individuals with severe seizures: 10%
[1]; day 1, stages 0 to 6
  seizure intensity: 2.4 grade
[1]; week 1
  seizure intensity: 3.9 grade
[1]; week 2, after additional administration
  seizure intensity: 2.9 grade
[1]; weeks 3 and 4
  seizure intensity: 4.9 grade
[2]
  weight gain: slightly smaller than that in the other groups

— patent EP4744649A1, “SUSTAINED-RELEASE INJECTABLE COMPOSITION FOR TREATING OR PREVENTING NEUROLOGICAL DISORDERS, AND METHOD FOR PREPARING SAME” (Inventage Lab Inc., priority 2023, dated 2025)
